Laboratory results: ChEMBL document CHEMBL2384921, “An altered zinc-binding site confers resistance to a covalent inactivator of New Delhi metallo-beta-lactamase-1 (NDM-1) discovered by high-throughput screening” (Bioorg Med Chem, 2013)
The source made the active and inactive calls. No cut-off for these calls is given here.

Legend:
[1] = Inhibition of TEM-1 (unknown origin) using nitrocefin as substrate preincubated 10 mins followed by substrate addition measured after 20 mins relative to control
[2] = Inhibition of NDM-1 (unknown origin) using nitrocefin as substrate preincubated 10 mins followed by substrate addition measured after 20 mins
[3] = Inhibition of TEM-1 (unknown origin) using nitrocefin as substrate preincubated 10 mins followed by substrate addition measured after 20 mins
[4] = Time-dependent inhibition of recombinant NDM-1 C108D mutant (unknown origin) expressed in Escherichia coli BL21 (DE3) at 100 uM
[5] = Time-dependent inhibition of wild type NDM-1 (unknown origin) expressed in Escherichia coli BL21 (DE3) at 100 uM

Compound | Imax [1] | IC50 [2] | IC50 [3] | inhibition [4] | inhibition [5]
Cn1cc(C2=C(c3ccc(Cl)cc3Cl)C(=O)NC2=O)c2ccccc21 [SB-216763] | 2% | 28 µM | > 30 µM |  | 
Cc1c2ccncc2c(C)c2c1[nH]c1ccccc12 [ELLIPTECINE] |  | > 30 µM | > 30 µM |  | 
OCCN(CCO)c1nc(N2CCCCC2)c2nc(N(CCO)CCO)nc(N3CCCCC3)c2n1 [DIPYRIDAMOLE] | 26% | > 10 µM | > 30 µM |  | 
CC(=O)[C@]1(O)Cc2c(O)c3c(c(O)c2[C@@H](O[C@H]2C[C@H](N)[C@H](O)[C@H](C)O2)C1)C(=O)c1ccccc1C3=O [IDARUBICIN] | 100% | 0.7 µM | 7.3 µM |  | 
Nc1ccc2c3c(cccc13)C(=O)NC2=O | 131% | 0.7 µM | 5.2 µM |  | 
CCN(CC)C(=O)N[C@@H]1C[C@@H]2c3cccc4[nH]cc(c34)C[C@H]2N(C)C1 |  | > 30 µM | > 30 µM |  | 
4-[sequence] ACID | 8% |  |  | inactive | Active
4-CHLOROMERCURIBENZOIC ACID |  | 2.3 µM | > 30 µM |  | 
